Literature values in patent US20210319872A1, “DRUG AND DEVICE COMBINATION PRODUCTS WITH IMPROVED SAFETY AND EFFICACY PROFILES” (priority 2016, published 2021).
Read-outs that look alike come from different tables or passages of the source. Values belong to the molecule of their own block, whether it stands above or below them.

[1] = Myelodysplastic syndrome, grade 3 or 4

Cataract, Grade 3 or 4 (Multiple myeloma, grade 3.4): 1.4% (grade 3.4))
Multiple organ failure [1]: 1.4%
Pulmonary hypertension [1]: 1.4%
Myocardial infarction (in vivo): < 5%
Anemia, All grades (mantle cell lymphoma): 31%
Anemia, Grade 3 or 4 (mantle cell lymphoma): 11%
Arthralgia (mantle cell lymphoma): 8%
Asthenia (mantle cell lymphoma): 14%
Backache (mantle cell lymphoma): 13%
Constipation (mantle cell lymphoma): 16%
Cough (mantle cell lymphoma): 28%
Diarrhea (mantle cell lymphoma): 31%
Fatigue (mantle cell lymphoma): 34%
Fever (mantle cell lymphoma): 23%
Hypokalemia (mantle cell lymphoma): 13%
Neutropenia, All grades (mantle cell lymphoma): 49%
Neutropenia, Grade 3 or 4 (mantle cell lymphoma): 43%
Peripheral edema (mantle cell lymphoma): 16%
Pruritus (mantle cell lymphoma): 17%
Rash (mantle cell lymphoma): cell lymphoma, 22%)
Thrombocytopenia, All grades (mantle cell lymphoma): 36%)
Thrombocytopenia, Grade 3 or 4 (mantle cell lymphoma): 28%
Tumor flare (mantle cell lymphoma): 10%
Upper respiratory infection (mantle cell lymphoma): 13%
Atrial fibrillation, Grade 3 or 4 (multiple myeloma): 3.7%
Cramp (multiple myeloma): 33.4%
Rash (multiple myeloma): ≤ 26.1%
Tremor (multiple myeloma): 21.2%
Arthralgia (myelodysplastic syndrome): 21.6%
Asthenia (myelodysplastic syndrome): 14.9%
Backache (myelodysplastic syndrome): 20.9%
Constipation (myelodysplastic syndrome): 23.6%
Cough (myelodysplastic syndrome): 19.6%
Cramp (myelodysplastic syndrome): 18.2%
Diarrhea (myelodysplastic syndrome): 48.6%
Epistaxis (myelodysplastic syndrome): 14.9%
Fatigue (myelodysplastic syndrome): 31.1%
Fever (myelodysplastic syndrome): 20.9%
Insomnia (myelodysplastic syndrome): 10.1%
Nasopharyngitis (myelodysplastic syndrome): 23%
Neutropenia, All grades (myelodysplastic syndrome): 58.8%
Neutropenia, Grade 3 or 4 (myelodysplastic syndrome): 53.4%
Peripheral edema (myelodysplastic syndrome): 20.3%
Pneumonia (myelodysplastic syndrome): 11.5%
Pruritus (myelodysplastic syndrome): 41.9%
Rash (myelodysplastic syndrome): 35.8%
Upper respiratory infection (myelodysplastic syndrome): 14.9%
Structure (SMILES): Nc1cccc2c1CN(C1CCC(=O)NC1=O)C2=O (stereo not shown) [Revlimid]
Pneumonitis [1]: syndrome, grade 3 or 4, 1.4%), Pulmonary embolism, Grade 3 or 4
Hepatotoxicity (in vivo): 15%
Common side effect, Other (listed without frequency): Infectious disease
Serious side effect, Dermatologic (listed without frequency): Stevens-Johnson syndrome
Serious side effect, Hematologic (listed without frequency): Thrombosis
Serious side effect, Hepatic (listed without frequency): Liver failure
Serious side effect, Other (listed without frequency): Other: Angioedema, Multiple organ failure (Myelodysplastic
Serious side effect, Renal (listed without frequency): Renal: Interstitial nephritis, acute
Dyspnea (mantle cell lymphoma): 16.9%; mantle cell lymphoma, 18%), Epistaxis (Myelodysplastic
Hypoxia (mantle cell lymphoma): Respiratory: Hypoxia (Mantle cell lymphoma, 2%), Pleural
Pleural effusion (mantle cell lymphoma): effusion (Mantle cell lymphoma, 7%), Pneumonia (Multiple
Pneumonia (mantle cell lymphoma): mantle cell lymphoma, 14%), Pneumonitis (Myelodysplastic
Arthralgia (multiple myeloma): Musculoskeletal: Arthralgia (Multiple myeloma, 19%;
Asthenia (multiple myeloma): Neurologic: Asthenia (Multiple myeloma, 28.2%; myelodysplastic
Blurred vision (multiple myeloma): Ophthalmic: Blurred vision (Multiple myeloma, 17.3%)
Cataract, Grade 3 or 4 (multiple myeloma): Ophthalmic: Cataract, Grade 3 or 4 (Multiple myeloma, 9.6%;
Congestive heart failure, Grade 3 or 4 (multiple myeloma): failure, Grade 3 or 4 (multiple myeloma, 1.4%), Myocardial
Constipation (multiple myeloma): Gastrointestinal: Constipation (Multiple myeloma, 40.5%;
Cough (multiple myeloma): Respiratory: Cough (Multiple myeloma, 22.7%; myelodysplastic
Insomnia (multiple myeloma): Insomnia (Multiple myeloma, 27.6%; myelodysplastic syndrome,
Peripheral edema (multiple myeloma): Cardiovascular: Peripheral edema (multiple myeloma, 26.3%;
Pruritus (multiple myeloma): Dermatologic: Pruritus (Multiple myeloma, 7.6%; myelodysplastic
Upper respiratory infection (multiple myeloma): 15.5%), Upper respiratory infection (Multiple myeloma, 24.6%;
Anemia, All grades (myelodysplastic syndrome): 43.8%; myelodysplastic syndrome, 11.5%; mantle cell lymphoma,
Anemia, Grade 3 or 4 (myelodysplastic syndrome): 18.2%; myelodysplastic syndrome, 6.1%; mantle cell lymphoma,
Hypokalemia (myelodysplastic syndrome): 17.1%; myelodysplastic syndrome, 10.8%; mantle cell lymphoma,
Thrombocytopenia, All grades (myelodysplastic syndrome): 21.5%; myelodysplastic syndrome, 61.5%; mantle cell lymphoma,
Thrombocytopenia, Grade 3 or 4 (myelodysplastic syndrome): 12.2%; myelodysplastic syndrome, 50%; mantle cell lymphoma,

Structure (SMILES): Cc1nc2n(c(=O)c1CCN1CCC(c3noc4cc(F)ccc34)CC1)CCCC2 [Risperidone (Risperdal)]
Akathisia (in vivo): Neurologic: Akathisia (oral, up to 10%; IM, 4% to 11%), Dizziness
Anxiety (in vivo): Psychiatric: Anxiety (oral, up to 16% IM, less than 4%)
Constipation (in vivo): Gastrointestinal: Constipation (oral, 8% to 21%; IM, 5% to 7%),
Diarrhea (in vivo): Diarrhea (oral, 1% to 8%; IM, less than 4%), Excessive salivation
Dystonia (in vivo): < 5%; pediatric, 2% to 6%; IM, adult, less than 4%), Parkinsonism
Excessive salivation (in vivo): (oral, 1% to 10%; IM, 1% to 4%), Increased appetite (oral, adult,
Fatigue (in vivo): 3% to 9%), Pain, General (IM, 1% to 4%)
Hyperprolactinemia (in vivo): < 1%; pediatrics, 49% to 87%; IM, less than 4%), Weight increased
Increased appetite (in vivo): more than 5%; pediatric, 4% to 47%; IM, 4%), Indigestion (oral,
Indigestion (in vivo): 2% to 10%; IM, 6%), Nausea (oral, 4% to 16%; IM, 3% to 4%),
Nausea (in vivo): 2% to 10%; IM, 6%), Nausea (oral, 4% to 16%; IM, 3% to 4%),
Pain, General (in vivo): 3% to 9%), Pain, General (IM, 1% to 4%)
Parkinsonism (in vivo): (oral, 6% to 28%; IM, 8% to 15%), Sedated (oral, adult, 3% to 6%;
Rash (in vivo): IM, less than 4%)
Syncope (in vivo): Syncope (oral, up to 1%; IM, up to 2%)
Tardive dyskinesia (in vivo): less than 5%; IM, less than 4%)
Tremor (in vivo): pediatric, 8% to 29%), Tremor (oral, 2% to 12%; IM, 3% to 24%)
Upper respiratory infection (in vivo): respiratory infection (oral, 2% to 8%; IM, 2% and 6%)
Vomiting (in vivo): < 16%), Vomiting (oral, 10% to 25%; IM, less than 4%), Xerostomia
Weight increased (in vivo): (oral, adult, 8.7% to 20.9%; pediatric, 14% to 32.6%; IM, adult, 8%
Xerostomia (in vivo): (oral, 4% to 15%; IM, up to 7%)
Akathisia (in vivo, po): Neurologic: Akathisia (oral, up to 10%; IM, 4% to 11%), Dizziness
Anxiety (in vivo, po): Psychiatric: Anxiety (oral, up to 16% IM, less than 4%)
Cerebrovascular accident (in vivo, po): Neurologic: Cerebrovascular accident (oral, less than 5%; IM, less
Constipation (in vivo, po): Gastrointestinal: Constipation (oral, 8% to 21%; IM, 5% to 7%),
Diarrhea (in vivo, po): Diarrhea (oral, 1% to 8%; IM, less than 4%), Excessive salivation
Excessive salivation (in vivo, po): (oral, 1% to 10%; IM, 1% to 4%), Increased appetite (oral, adult,
Fatigue (in vivo, po): Other: Fatigue (oral, adult, 1% to 3%; pediatric, 18% to 42%; IM,
Hyperprolactinemia (in vivo, po): < 1%; pediatrics, 49% to 87%; IM, less than 4%), Weight increased
Increased appetite (in vivo, po): more than 5%; pediatric, 4% to 47%; IM, 4%), Indigestion (oral,
Indigestion (in vivo, po): 2% to 10%; IM, 6%), Nausea (oral, 4% to 16%; IM, 3% to 4%),
Nasal congestion (in vivo, po): 4%), Nasal congestion (oral, adult, 4% to 6%; pediatric, 13%),
Nausea (in vivo, po): 2% to 10%; IM, 6%), Nausea (oral, 4% to 16%; IM, 3% to 4%),
Pain in throat (in vivo, po): throat (oral, adult, more than 5%; pediatric, 3% to 10%), Upper
Parkinsonism (in vivo, po): (oral, 6% to 28%; IM, 8% to 15%), Sedated (oral, adult, 3% to 6%;
Rash (in vivo, po): Dermatologic: Rash (oral, adults, 1% to 4%; pediatrics, up to 11%;
Syncope (in vivo, po): Syncope (oral, up to 1%; IM, up to 2%)
Tardive dyskinesia (in vivo, po): less than 5%; IM, less than 4%)
Tremor (in vivo, po): pediatric, 8% to 29%), Tremor (oral, 2% to 12%; IM, 3% to 24%)
Upper respiratory infection (in vivo, po): respiratory infection (oral, 2% to 8%; IM, 2% and 6%)
Vomiting (in vivo, po): 16%), Vomiting (oral, 10% to 25%; IM, less than 4%), Xerostomia
Weight increased (in vivo, po): (oral, adult, 8.7% to 20.9%; pediatric, 14% to 32.6%; IM, adult, 8%
Xerostomia (in vivo, po): (oral, 4% to 15%; IM, up to 7%)

Structure (SMILES): O=C(NC[C@H]1CN(c2ccc(N3CCOCC3=O)cc2)C(=O)O1)c1ccc(Cl)s1 [Rivaroxaban (Xarelto)]
Gastrointestinal hemorrhage (in vivo): fibrillation, 3.1%)
Syncope (in vivo): Cardiovascular: Syncope (1.2%)

Structure (SMILES): CCCN(CCC)CCc1cccc2c1CC(=O)N2 [Ropinirole (Requip)]
Abdominal pain (in vivo): Gastrointestinal: Abdominal pain (6% to 7%), Constipation (4% to
Constipation (in vivo): Gastrointestinal: Abdominal pain (6% to 7%), Constipation (4% to
Dyskinesia (in vivo): syndrome, 11%), Dyskinesia (13% to 34%), Headache (6%),
Fatigue (in vivo): Other: Fatigue (8% to 11%)
Hallucinations (in vivo): Psychiatric: Hallucinations (5% to 10%)
Headache (in vivo): syndrome, 11%), Dyskinesia (13% to 34%), Headache (6%),
Hypotension (in vivo): Cardiovascular: Hypotension (2% to 25%), Orthostatic hypotension
Nausea (in vivo): 5%), Nausea (11% to 60%), Vomiting (7% to 12%)
Orthostatic hypotension (in vivo): (Up to 23%)
Syncope (in vivo): disease, 1% to 12%; restless leg syndrome, 1%)
Vomiting (in vivo): 5%), Nausea (11% to 60%), Vomiting (7% to 12%)

Structure (SMILES): C=CCC1(C(C)CCC)C(=O)NC(=O)NC1=O (stereo not shown) [Seconal (secobarbital)]
Complex mannerisms - behavior (in vivo): Psychiatric: Complex mannerisms - behavior (Less than 1%.)
Liver damage (in vivo): Hepatic: Liver damage (less than 1%)
Megaloblastic anemia, With prolonged use (in vivo): < 1%)
Serious side effect, Other (in vivo): Other: Drug dependence, Withdrawal sign or symptom
Somnolence (in vivo): Neurologic: Somnolence (1% to 3%)
